From patent US20170050957A1, “4-AMINO-6-(HETEROCYCLIC)PICOLINATES AND 6-AMINO-2-(HETEROCYCLIC)PYRIMIDINE-4-CARBOXYLATES AND THEIR USE AS HERBICIDES” (Dow AgroSciences LLC, priority 2013, published 2017)
Where two headings read alike, the source gives them in different places.

Columns and labels:
[1] = tested on: Key Broadleaf Weed and Crop Species; experiment: Post-emergent Test II herbicidal activity (Table 15); format: in vivo; details: post-emergence, 336 h, 14 d; for pest or weed control at 35 g/ha: 35 g ai/ha; for pest or weed control at 70 g/ha: 70 g ai/ha; for pest or weed control at 140 g/ha: 140 g ai/ha
How it was run: (§1)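 Visual injury rating (0 = none, 100 = complete kill) taken 14 d after treatment, relative to untreated plants. Compounds in acetone/DMSO with crop oil concentrate and Triton X-155 were track-sprayed at 187 L/ha onto seedlings at the first-second true leaf stage.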

[2] = tested on: Key Grass and Sedge Weeds as well as Grass Crops; experiment: Post-emergent Test II herbicidal activity (Table 16); format: in vivo; details: post-emergence, 336 h, 14 days after application; for pest or weed control at 35 g/ha: 35 g ai/ha; for pest or weed control at 70 g/ha: 70 g ai/ha; for pest or weed control at 140 g/ha: 140 g ai/ha
How it was run: as §1

[3] = Abutilon theophrasti, velvetleaf (Abutilon theophrasti), read-out: Visual Growth Reduction (%) 14 Days After Application, ABUTH
[4] = Amaranthus retroflexus, redroot pigweed (Amaranthus retroflexus), read-out: Visual Growth Reduction (%) 14 Days After Application, AMARE
[5] = Brassica napus, oilseed rape, canola (Brassica napus), read-out: Visual Growth Reduction (%) 14 Days After Application, BRSNN
[6] = Chenopodium album, lambsquarters (Chenopodium album), read-out: Visual Growth Reduction (%) 14 Days After Application, CHEAL
[7] = Euphorbia heterophylla, wild poinsettia (Euphorbia heterophylla), read-out: Visual Growth Reduction (%) 14 Days After Application, EPHHL
[8] = Helianthus annuus, sunflower (Helianthus annuus), read-out: Visual Growth Reduction (%) 14 Days After Application, HELAN
[9] = Cyperus esculentus, yellow nutsedge (Cyperus esculentus), read-out: Visual Growth Reduction (%) 14 Days After Application CYPES
[10] = Echinochloa crus-galli, barnyardgrass (Echinochloa crus-galli), read-out: Visual Growth Reduction (%) 14 Days After Application ECHCG
[11] = Oryza sativa, rice (Oryza sativa), read-out: Visual Growth Reduction (%) 14 Days After Application ORYSA
[12] = Setaria faberi, giant foxtail (Setaria faberi), read-out: Visual Growth Reduction (%) 14 Days After Application SETFA
[13] = Triticum aestivum, wheat, spring (Triticum aestivum), read-out: Visual Growth Reduction (%) 14 Days After Application TRZAS
[14] = Zea mays, maize, corn (Zea mays), read-out: Visual Growth Reduction (%) 14 Days After Application ZEAMX

COC(=O)c1nc(-c2ccc3[nH]ncc3c2)c(F)c(N)c1Cl [Compound 4.01]
pest or weed control at 35 g/ha [1, 3]: 0 to 29%
pest or weed control at 70 g/ha [1, 3]: 0 to 29%
pest or weed control at 140 g/ha [1, 3]: 0 to 29%
pest or weed control at 35 g/ha [1, 4]: 0 to 29%
pest or weed control at 70 g/ha [1, 4]: 45 to 59%
pest or weed control at 140 g/ha [1, 4]: 60 to 74%
pest or weed control at 35 g/ha [1, 5]: 0 to 29%
pest or weed control at 70 g/ha [1, 5]: 0 to 29%
pest or weed control at 140 g/ha [1, 5]: 0 to 29%
pest or weed control at 35 g/ha [1, 6]: 0 to 29%
pest or weed control at 70 g/ha [1, 6]: 60 to 74%
pest or weed control at 140 g/ha [1, 6]: 60 to 74%
pest or weed control at 35 g/ha [1, 7]: 0 to 29%
pest or weed control at 70 g/ha [1, 7]: 0 to 29%
pest or weed control at 140 g/ha [1, 7]: 0 to 29%
pest or weed control at 35 g/ha [1, 8]: 0 to 29%
pest or weed control at 70 g/ha [1, 8]: 0 to 29%
pest or weed control at 140 g/ha [1, 8]: 0 to 29%
pest or weed control at 35 g/ha [2, 9]: 0 to 29%
pest or weed control at 70 g/ha [2, 9]: 0 to 29%
pest or weed control at 140 g/ha [2, 9]: 0 to 29%
pest or weed control at 35 g/ha [2, 10]: 0 to 29%
pest or weed control at 70 g/ha [2, 10]: 0 to 29%
pest or weed control at 140 g/ha [2, 10]: 0 to 29%
pest or weed control at 35 g/ha [2, 11]: 0 to 29%
pest or weed control at 70 g/ha [2, 11]: 0 to 29%
pest or weed control at 140 g/ha [2, 11]: 0 to 29%
pest or weed control at 35 g/ha [2, 12]: 0 to 29%
pest or weed control at 70 g/ha [2, 12]: 0 to 29%
pest or weed control at 140 g/ha [2, 12]: 0 to 29%
pest or weed control at 35 g/ha [2, 13]: 0 to 29%
pest or weed control at 70 g/ha [2, 13]: 0 to 29%
pest or weed control at 140 g/ha [2, 13]: 0 to 29%
pest or weed control at 35 g/ha [2, 14]: 0 to 29%
pest or weed control at 70 g/ha [2, 14]: 0 to 29%
pest or weed control at 140 g/ha [2, 14]: 0 to 29%
melting point: 188 to 190 °C
